Results from ChEMBL document CHEMBL4507259 (2021).

Key:
[1] = target: Serine/threonine-protein kinase N2 (Homo sapiens) (UniProt Q16513); conditions: Compound concentration 1000.0 nM
[2] = target: Leukocyte tyrosine kinase receptor (Homo sapiens) (UniProt P29376); conditions: Compound concentration 1000.0 nM
[3] = target: Histamine H1 receptor (Homo sapiens) (UniProt P35367); conditions: Compound concentration 10.0 uM
[4] = target: Serine/threonine-protein kinase PLK2 (Homo sapiens) (UniProt Q9NYY3); conditions: Compound concentration 1000.0 nM
[5] = test system: Mast/stem cell growth factor receptor Kit (Homo sapiens), P10721 [D816H]; conditions: Compound concentration 1000.0 nM
[6] = target: Serine/threonine-protein kinase MARK1 (Homo sapiens) (UniProt Q9P0L2); conditions: Compound concentration 1000.0 nM
[7] = target: Dual specificity mitogen-activated protein kinase kinase 6 (Homo sapiens) (UniProt P52564); conditions: Compound concentration 1000.0 nM
[8] = target: Serine/threonine-protein kinase Chk2 (Homo sapiens) (UniProt O96017); conditions: Compound concentration 1000.0 nM
[9] = target: Phosphatidylinositol 4-phosphate 5-kinase type-1 alpha (Homo sapiens) (UniProt Q99755); conditions: Compound concentration 1000.0 nM
[10] = target: Death-associated protein kinase 2 (Homo sapiens) (UniProt Q9UIK4); conditions: Compound concentration 1000.0 nM
[11] = target: G protein-coupled receptor kinase 4 (Homo sapiens) (UniProt P32298); conditions: Compound concentration 1000.0 nM
[12] = target: Serine/threonine-protein kinase D2 (Homo sapiens) (UniProt Q9BZL6); conditions: Compound concentration 1000.0 nM
[13] = target: Histamine H2 receptor (Homo sapiens) (UniProt P25021); assay: H2 (h) CEREP ligand profiling; conditions: filed as antagonist, Compound concentration 10.0 uM
[14] = target: Beta-2 adrenergic receptor (Homo sapiens) (UniProt P07550); conditions: Compound concentration 10.0 uM
[15] = target: Mitogen-activated protein kinase kinase kinase 6 (Homo sapiens) (UniProt O95382); conditions: Compound concentration 1000.0 nM
[16] = target: Dual specificity tyrosine-phosphorylation-regulated kinase 1B (Homo sapiens) (UniProt Q9Y463); conditions: Compound concentration 1000.0 nM
[17] = target: Casein kinase I isoform alpha-like (Homo sapiens) (UniProt Q8N752); conditions: Compound concentration 1000.0 nM
[18] = test system: Receptor-type tyrosine-protein kinase FLT3 (Homo sapiens), P36888 [UNDEFINED MUTATION]; conditions: Compound concentration 1000.0 nM
[19] = target: Mitogen-activated protein kinase kinase kinase 14 (Homo sapiens) (UniProt Q99558); conditions: Compound concentration 1000.0 nM
[20] = target: Mitogen-activated protein kinase kinase kinase kinase 2 (Homo sapiens) (UniProt Q12851); conditions: Compound concentration 1000.0 nM
[21] = target: Epithelial discoidin domain-containing receptor 1 (Homo sapiens) (UniProt Q08345); conditions: Compound concentration 1000.0 nM
[22] = test system: Fibroblast growth factor receptor 3 (Homo sapiens), P22607 [G697C]; conditions: Compound concentration 1000.0 nM
[23] = target: Casein kinase II subunit alpha (Homo sapiens) (UniProt P68400); conditions: Compound concentration 1000.0 nM
[24] = target: Serine/threonine-protein kinase 17B (Homo sapiens) (UniProt O94768); conditions: Compound concentration 1000.0 nM
[25] = target: Cyclin-dependent kinase 2 (Homo sapiens) (UniProt P24941); conditions: Compound concentration 1000.0 nM
[26] = target: Serine/threonine-protein kinase 36 (Homo sapiens) (UniProt Q9NRP7); conditions: Compound concentration 1000.0 nM
[27] = target: Microtubule-associated serine/threonine-protein kinase 1 (Homo sapiens) (UniProt Q9Y2H9); conditions: Compound concentration 1000.0 nM
[28] = target: MAP kinase-interacting serine/threonine-protein kinase 2 (Homo sapiens) (UniProt Q9HBH9); conditions: Compound concentration 1000.0 nM
[29] = target: Cyclin-dependent kinase 16 (Homo sapiens) (UniProt Q00536); conditions: Compound concentration 1000.0 nM
[30] = target: Serine/threonine-protein kinase Sgk1 (Homo sapiens) (UniProt O00141); conditions: Compound concentration 1000.0 nM
[31] = target: Testis-specific serine/threonine-protein kinase 3 (Homo sapiens) (UniProt Q96PN8); conditions: Compound concentration 1000.0 nM
[32] = target: Serine/threonine-protein kinase 32A (Homo sapiens) (UniProt Q8WU08); conditions: Compound concentration 1000.0 nM
[33] = target: Phosphatidylinositol 4-phosphate 3-kinase C2 domain-containing subunit beta (Homo sapiens) (UniProt O00750); conditions: Compound concentration 1000.0 nM
[34] = target: Interleukin-1 receptor-associated kinase 3 (Homo sapiens) (UniProt Q9Y616); conditions: Compound concentration 1000.0 nM
[35] = target: Serine/threonine-protein kinase 32C (Homo sapiens) (UniProt Q86UX6); conditions: Compound concentration 1000.0 nM
D(3) dopamine receptor = D(3) dopamine receptor (Homo sapiens, UniProt P35462); conditions: Compound concentration 10.0 uM
[36] = target: Interleukin-1 receptor-associated kinase 4 (Homo sapiens) (UniProt Q9NWZ3); conditions: Compound concentration 1000.0 nM
[37] = target: Serine/threonine-protein kinase MRCK alpha (Homo sapiens) (UniProt Q5VT25); conditions: Compound concentration 1000.0 nM
[38] = target: Casein kinase I isoform epsilon (Homo sapiens) (UniProt P49674); conditions: Compound concentration 1000.0 nM
[39] = target: Mast/stem cell growth factor receptor Kit (Homo sapiens) (UniProt P10721); conditions: Compound concentration 1000.0 nM
Mast/stem cell growth factor receptor Kit (Homo sapiens), sequence (P10721 whole entry): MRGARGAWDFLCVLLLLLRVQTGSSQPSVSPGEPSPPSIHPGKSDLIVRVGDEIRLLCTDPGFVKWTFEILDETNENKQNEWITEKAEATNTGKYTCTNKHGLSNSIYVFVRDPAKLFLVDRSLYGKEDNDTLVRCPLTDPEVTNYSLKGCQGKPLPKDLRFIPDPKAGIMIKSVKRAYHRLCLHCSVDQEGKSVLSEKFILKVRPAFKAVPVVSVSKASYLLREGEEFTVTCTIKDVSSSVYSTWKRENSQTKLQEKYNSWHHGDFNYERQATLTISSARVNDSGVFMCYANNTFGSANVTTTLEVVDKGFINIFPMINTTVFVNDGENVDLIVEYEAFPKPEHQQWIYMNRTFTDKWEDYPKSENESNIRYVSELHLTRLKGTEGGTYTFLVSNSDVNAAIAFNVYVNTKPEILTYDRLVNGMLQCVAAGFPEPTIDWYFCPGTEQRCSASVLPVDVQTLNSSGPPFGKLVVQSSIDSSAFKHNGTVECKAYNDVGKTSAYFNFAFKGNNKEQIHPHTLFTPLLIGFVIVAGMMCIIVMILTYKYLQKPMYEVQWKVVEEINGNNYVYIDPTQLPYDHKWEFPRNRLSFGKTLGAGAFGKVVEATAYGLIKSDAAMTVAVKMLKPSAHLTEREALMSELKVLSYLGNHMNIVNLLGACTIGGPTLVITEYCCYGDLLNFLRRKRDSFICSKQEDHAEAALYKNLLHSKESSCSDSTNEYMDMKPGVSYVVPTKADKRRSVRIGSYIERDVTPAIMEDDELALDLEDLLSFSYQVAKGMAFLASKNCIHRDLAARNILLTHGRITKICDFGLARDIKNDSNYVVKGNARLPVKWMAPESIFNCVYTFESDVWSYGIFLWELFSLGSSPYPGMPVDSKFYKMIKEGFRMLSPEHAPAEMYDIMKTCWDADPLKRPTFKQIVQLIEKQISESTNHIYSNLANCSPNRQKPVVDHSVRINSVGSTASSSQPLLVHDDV

Interleukin-1 receptor-associated kinase 4 (Homo sapiens), sequence (Q9NWZ3 whole entry): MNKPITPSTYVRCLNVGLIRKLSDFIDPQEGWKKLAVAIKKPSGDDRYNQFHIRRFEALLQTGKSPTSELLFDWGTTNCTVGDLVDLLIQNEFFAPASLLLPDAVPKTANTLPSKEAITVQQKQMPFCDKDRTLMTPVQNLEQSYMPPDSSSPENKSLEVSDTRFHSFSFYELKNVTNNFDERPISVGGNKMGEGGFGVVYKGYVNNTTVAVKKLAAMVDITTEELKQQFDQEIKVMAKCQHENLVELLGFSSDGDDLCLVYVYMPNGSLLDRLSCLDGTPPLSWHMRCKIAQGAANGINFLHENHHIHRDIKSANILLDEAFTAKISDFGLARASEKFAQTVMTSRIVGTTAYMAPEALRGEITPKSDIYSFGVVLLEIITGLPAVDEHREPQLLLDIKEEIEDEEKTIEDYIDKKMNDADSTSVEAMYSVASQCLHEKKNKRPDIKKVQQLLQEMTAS
Cyclin-dependent kinase 16 (Homo sapiens), sequence (Q00536 whole entry): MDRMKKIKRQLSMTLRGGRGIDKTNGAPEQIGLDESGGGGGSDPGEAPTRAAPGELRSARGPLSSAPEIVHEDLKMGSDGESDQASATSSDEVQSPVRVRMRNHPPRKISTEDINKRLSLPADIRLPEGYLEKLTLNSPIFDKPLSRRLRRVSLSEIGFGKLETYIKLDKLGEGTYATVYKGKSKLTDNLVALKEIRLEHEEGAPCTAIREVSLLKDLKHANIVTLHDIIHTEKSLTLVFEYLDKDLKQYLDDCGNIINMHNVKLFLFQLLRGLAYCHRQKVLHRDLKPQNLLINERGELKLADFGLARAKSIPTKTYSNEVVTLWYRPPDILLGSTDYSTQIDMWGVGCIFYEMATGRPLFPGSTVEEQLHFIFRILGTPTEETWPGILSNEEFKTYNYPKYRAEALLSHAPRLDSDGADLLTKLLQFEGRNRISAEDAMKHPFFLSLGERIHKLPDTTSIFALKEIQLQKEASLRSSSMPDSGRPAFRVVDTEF
Serine/threonine-protein kinase 17B (Homo sapiens), sequence (O94768 whole entry): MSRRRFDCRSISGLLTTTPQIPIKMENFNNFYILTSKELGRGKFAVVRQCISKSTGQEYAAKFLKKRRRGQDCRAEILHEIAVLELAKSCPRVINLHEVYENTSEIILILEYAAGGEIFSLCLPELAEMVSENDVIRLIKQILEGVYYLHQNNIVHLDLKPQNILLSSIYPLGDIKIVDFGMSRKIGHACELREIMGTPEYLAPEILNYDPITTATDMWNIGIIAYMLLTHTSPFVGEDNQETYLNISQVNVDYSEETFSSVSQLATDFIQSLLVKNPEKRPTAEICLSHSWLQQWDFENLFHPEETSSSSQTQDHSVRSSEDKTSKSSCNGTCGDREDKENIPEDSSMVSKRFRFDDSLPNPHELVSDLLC
Death-associated protein kinase 2 (Homo sapiens), sequence (Q9UIK4 whole entry, looked up): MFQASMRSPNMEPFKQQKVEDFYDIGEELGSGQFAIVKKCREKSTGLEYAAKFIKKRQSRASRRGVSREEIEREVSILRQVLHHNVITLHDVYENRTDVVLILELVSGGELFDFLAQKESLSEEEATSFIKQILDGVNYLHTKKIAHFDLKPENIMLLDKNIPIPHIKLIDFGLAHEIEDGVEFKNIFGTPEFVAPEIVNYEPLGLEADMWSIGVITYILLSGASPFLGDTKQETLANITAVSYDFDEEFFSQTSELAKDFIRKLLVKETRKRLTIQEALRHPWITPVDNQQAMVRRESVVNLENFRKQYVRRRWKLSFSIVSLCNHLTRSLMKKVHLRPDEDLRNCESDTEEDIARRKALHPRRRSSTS
Casein kinase II subunit alpha (Homo sapiens), sequence (P68400 whole entry, looked up): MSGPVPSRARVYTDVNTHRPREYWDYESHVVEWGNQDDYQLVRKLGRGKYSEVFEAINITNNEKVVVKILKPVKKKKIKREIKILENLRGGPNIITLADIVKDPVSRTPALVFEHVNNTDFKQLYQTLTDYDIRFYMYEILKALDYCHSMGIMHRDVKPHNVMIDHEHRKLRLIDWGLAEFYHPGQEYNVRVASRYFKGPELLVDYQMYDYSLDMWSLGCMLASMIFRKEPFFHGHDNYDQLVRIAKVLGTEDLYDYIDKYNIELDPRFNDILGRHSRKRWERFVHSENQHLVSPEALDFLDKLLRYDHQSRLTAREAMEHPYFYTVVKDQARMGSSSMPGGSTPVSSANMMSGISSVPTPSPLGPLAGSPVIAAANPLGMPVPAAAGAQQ
G protein-coupled receptor kinase 4 (Homo sapiens), sequence (P32298 whole entry, looked up): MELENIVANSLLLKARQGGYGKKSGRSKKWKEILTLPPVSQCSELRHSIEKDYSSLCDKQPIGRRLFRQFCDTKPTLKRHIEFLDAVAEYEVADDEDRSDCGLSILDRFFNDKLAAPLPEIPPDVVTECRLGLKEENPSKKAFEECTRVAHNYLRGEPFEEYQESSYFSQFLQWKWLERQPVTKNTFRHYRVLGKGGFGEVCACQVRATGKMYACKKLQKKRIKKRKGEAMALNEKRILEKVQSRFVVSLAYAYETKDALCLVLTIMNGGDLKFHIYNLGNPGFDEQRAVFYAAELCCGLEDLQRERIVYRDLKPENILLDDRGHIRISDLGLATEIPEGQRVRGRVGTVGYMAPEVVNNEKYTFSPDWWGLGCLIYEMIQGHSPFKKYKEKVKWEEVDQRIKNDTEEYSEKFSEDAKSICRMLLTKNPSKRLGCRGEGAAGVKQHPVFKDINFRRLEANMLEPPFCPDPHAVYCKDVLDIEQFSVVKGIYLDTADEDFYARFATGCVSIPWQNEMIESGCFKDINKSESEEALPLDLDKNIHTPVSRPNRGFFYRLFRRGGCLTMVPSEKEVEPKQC
Serine/threonine-protein kinase MARK1 (Homo sapiens), sequence (Q9P0L2 whole entry, looked up): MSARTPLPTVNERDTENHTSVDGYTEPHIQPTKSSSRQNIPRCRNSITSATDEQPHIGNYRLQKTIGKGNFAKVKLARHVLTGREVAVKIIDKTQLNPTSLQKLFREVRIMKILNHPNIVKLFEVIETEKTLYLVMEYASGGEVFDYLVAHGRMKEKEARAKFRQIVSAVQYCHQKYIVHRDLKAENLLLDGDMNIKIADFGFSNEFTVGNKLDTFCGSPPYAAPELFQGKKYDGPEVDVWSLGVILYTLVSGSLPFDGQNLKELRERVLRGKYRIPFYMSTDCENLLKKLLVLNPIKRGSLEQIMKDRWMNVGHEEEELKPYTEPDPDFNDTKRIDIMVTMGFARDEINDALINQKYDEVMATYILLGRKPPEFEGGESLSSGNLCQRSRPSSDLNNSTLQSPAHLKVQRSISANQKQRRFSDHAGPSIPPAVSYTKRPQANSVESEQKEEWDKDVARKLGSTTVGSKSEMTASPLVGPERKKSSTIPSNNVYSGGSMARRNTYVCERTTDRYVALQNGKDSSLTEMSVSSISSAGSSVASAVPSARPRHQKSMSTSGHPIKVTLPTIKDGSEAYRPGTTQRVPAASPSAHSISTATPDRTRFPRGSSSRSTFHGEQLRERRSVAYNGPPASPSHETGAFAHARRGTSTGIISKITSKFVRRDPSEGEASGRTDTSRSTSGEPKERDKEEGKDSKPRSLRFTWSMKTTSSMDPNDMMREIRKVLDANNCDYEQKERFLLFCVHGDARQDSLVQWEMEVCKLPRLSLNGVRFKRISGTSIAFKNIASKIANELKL
Casein kinase I isoform epsilon (Homo sapiens), sequence (P49674 whole entry, looked up, canonical isoform): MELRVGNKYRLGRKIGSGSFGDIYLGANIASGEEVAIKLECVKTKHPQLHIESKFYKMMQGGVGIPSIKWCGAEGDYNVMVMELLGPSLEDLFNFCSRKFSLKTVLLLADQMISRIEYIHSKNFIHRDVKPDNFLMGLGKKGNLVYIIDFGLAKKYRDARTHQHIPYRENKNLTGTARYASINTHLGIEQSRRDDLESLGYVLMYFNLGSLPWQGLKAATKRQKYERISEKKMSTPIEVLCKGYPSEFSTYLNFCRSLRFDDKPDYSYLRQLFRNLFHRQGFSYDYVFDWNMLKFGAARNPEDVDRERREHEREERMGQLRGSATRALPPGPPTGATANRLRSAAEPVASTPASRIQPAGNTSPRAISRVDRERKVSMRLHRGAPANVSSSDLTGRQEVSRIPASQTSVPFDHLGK
Mast/stem cell growth factor receptor Kit (Homo sapiens), P10721 [D816H], sequence (P10721 whole entry D816H): as the sequence (P10721 whole entry) above, with D816H counted along it

Row | Compound | residual activity [1] [%] | residual activity [2] [%] | inhibition [3] [%] | residual activity [4] [%] | residual activity [5] [%] | residual activity [6] [%] | residual activity [7] [%] | residual activity [8] [%] | residual activity [9] [%] | residual activity [10] [%] | residual activity [11] [%] | residual activity [12] [%] | inhibition [13] [%] | inhibition [14] [%] | residual activity [15] [%] | residual activity [16] [%] | residual activity [17] [%] | residual activity [18] [%] | residual activity [19] [%] | residual activity [20] [%] | other results
1 | CNC(=O)Nc1ccc2c(c1)CC[C@@]21OC(=O)N(CC(=O)N(Cc2ccc(F)cc2)[C@@H](C)C(F)(F)F)C1=O [A-485] | 97 | 100 | 1.99 | 91 | 67 | 89 | 100 | 100 | 95 | 92 | 98 | 100 | -9 | 19 | 86 | 81 | 88 | 87 | 67 | 76 | residual activity [21]: 100%; residual activity [22]: 79%; residual activity [23]: 63%; residual activity [24]: 100%; residual activity [25]: 100%; residual activity [26]: 77%; residual activity [27]: 94%; residual activity [28]: 82%; residual activity [29]: 75%; residual activity [30]: 63%; residual activity [31]: 88%; residual activity [32]: 88%; residual activity [33]: 100%; residual activity [34]: 95%; residual activity [35]: 88%; inhibition (D(3) dopamine receptor): 1.52%; residual activity [36]: 78%; residual activity [37]: 100%; residual activity [38]: 80%; residual activity [39]: 97%
2 | CNC(=O)Nc1ccc2c(c1)[C@@]1(CC2)OC(=O)N(CC(=O)N(Cc2ccc(F)cc2)[C@@H](C)C(F)(F)F)C1=O [A-486] | 100 | 100 | -7.68 | 92 | 70 | 100 | 100 | 100 | 89 | 100 | 100 | 100 | 6 | 24.7 | 82 | 100 | 100 | 87 | 68 | 92 | residual activity [21]: 100%; residual activity [22]: 96%; residual activity [23]: 60%; residual activity [24]: 77%; residual activity [25]: 100%; residual activity [26]: 100%; residual activity [27]: 85%; residual activity [28]: 76%; residual activity [29]: 83%; residual activity [30]: 54%; residual activity [31]: 100%; residual activity [32]: 100%; residual activity [33]: 99%; residual activity [34]: 100%; residual activity [35]: 100%; inhibition (D(3) dopamine receptor): 57.8%; residual activity [36]: 94%; residual activity [37]: 98%; residual activity [38]: 80%; residual activity [39]: 89%
